The subject of data set [1] is WALKER-CARCINOMA (carcinosarcoma). In words: Anti-carcinogenic activity in rats implanted with Walker carcinoma (tumor volume, average length of life, % cured). In kind it is in vivo, white rats. On the procedure:
(§1) The anti-carcinogenic activity of betulinol biacetate and betulonic aldehyde was assessed using 117-120 gram white rats implanted with […] and 21-23 gram white mice with artificially transplanted Ehrlich's tumor.
(§2) Solutions of 2.5% betulonic aldehyde and 0.05% betulinol biacetate were prepared in 10% polyvinylpyrrolidone containing Tween-80 (a sorbitan mono-9-octadecenate poly(oxy-1,2-ethanediyl)) stabilizer.
(§3) Mice were injected with 0.1-0.2 ml of either betulinol biacetate or betulonic aldehyde solution daily, starting 24 hours after transplantation, for the following 5 days. Rats were injected with 1.2 ml of either betulinol biacetate or betulonic aldehyde solution daily, starting 24 hours after implantation, for the following 5 days. Animals in control groups received the same amount of a 10% solution of polyvinylpyrrolidone.
(§4) The anti-tumor effect of betulinol acetate or betulonic aldehyde was determined by measuring the volume of the tumor on the 10th day after implantation. An average length of life ("ALL") was calculated for each of the deceased animals. In addition, the percentage of cured rats was also determined.
(§5) The volume of the tumor was measured and calculated as a multiple of the quadrate of its similar diameter by the greater diameter. Thus, the effect was expressed as a ratio ("E/C"), in percent, of the tumor volume in rats treated with betulinol acetate or betulonic aldehyde ("E") and the tumor volume in control rats ("C"). The effect of betulinol acetate or betulonic aldehyde on ALL was evaluated the same way.
(§6) A total of 155 mice and 142 rats were used for these experiments.

Another data set deals with EHRLICH-LETTRE CARCINOMA
In words: Anti-carcinogenic activity in mice with transplanted Ehrlich tumor (average length of life). To be noted: for ALL (Average length of life): 17 Mice/Group, control 10.6; for % of control (ALL): control = 100. Format: in vivo, white mice. On the procedure: as §1, §2, §3, §4, §5, §6

A short description of data set [2]: Betulinol biacetate solubility in organic solvents. Format: physicochemical. On the procedure:
Studies of betulinol biacetate solubility were conducted in order to determine the appropriate solvent for product crystallization and purification.

Setting [3] is: Group 1, Dose/day 206.7 mg/kg body weight.
[4] abbreviates: Group 2, Dose/day 197.0 mg/kg body weight.
[5] abbreviates: Group 3, Dose/day 98.0 mg/kg body weight.

Turning to `C=C(C)[C@@H]1CC[C@]2(C=O)CC[C@]3(C)[C@H](CC[C@@H]4[C@@]5(C)CCC(=O)C(C)(C)[C@@H]5CC[C@]43C)[C@@H]12` [Betulon aldehyde, Betulonic Aldehyde], in data set [1] (10th day, tumor volume versus control, dose and species not stated in the sentence (method speaks of rats)), the “rate of the tumor growth inhibited (of the control group)” value is listed as 31.2%. Moreover, the “ALL (Average length of life)” value in data set [1] (rats, Group 1, Dose/day 102.6 mg/kg body weight, injected daily for 5 days, 28 Rats/Group, control 21.7) came to 26.5 days; in the data set with EHRLICH-LETTRE CARCINOMA (setting [3]) it was 12.5 days; in the data set on EHRLICH-LETTRE CARCINOMA (setting [4]) it was 10.5 days; with EHRLICH-LETTRE CARCINOMA (setting [5]) it was 11.0 days. The “% of control (ALL)” value is given as 122.1% in data set [1] (rats, Group 1, Dose/day 102.6 mg/kg body weight, control = 100); 118.0% in the data set on EHRLICH-LETTRE CARCINOMA (setting [3]); 99.1% in the data set with EHRLICH-LETTRE CARCINOMA (setting [4]); 103.7% in the data set on EHRLICH-LETTRE CARCINOMA (setting [5]). In addition, in data set [1] (rats, Group 1, Dose/day 102.6 mg/kg body weight, cured rats lived over two months after implantation), the “% cured” value amounted to 33.0%.
Consider `C=C(C)[C@@H]1CC[C@]2(COC(C)=O)CC[C@]3(C)[C@H](CC[C@@H]4[C@@]5(C)CC[C@H](OC(C)=O)C(C)(C)[C@@H]5CC[C@]43C)[C@@H]12` [Betulinol diacetate, Betulinol Biacetate], for which the “BBA Mass Content, %, at 20 °C” value in data set [2] (Acetone) is 32 mass %; in data set [2] (Benzene) it was 100 mass %; in data set [2] (Butanol), 15 mass %; in data set [2] (Chloroform), 100 mass %; in data set [2] (Dimethylsulfoxide) it was 30 mass %; in data set [2] (Dioxane), 30 mass %. Besides, the “BBA Mass Content, %, at 20 °C” value in data set [2] (Ethanol) is 2.8 mass %; in data set [2] (Ethylacetate), 53 mass %; in data set [2] (Hexane) it was 15 mass %; in data set [2] (Isopropanol), 6.5 mass %; in data set [2] (Toluene), 100 mass %. The “BBA Mass Content, %, at T (°C)” value in data set [2] (Acetone, 56 °C) stood at 68 mass %; in data set [2] (Butanol, 95 °C), 100 mass %; in data set [2] (Dimethylsulfoxide, 189 °C) it was 100 mass %; in data set [2] (Dioxane, 101 °C), 100 mass %; in data set [2] (Ethanol, 78 °C) it was 18 mass %; in data set [2] (Ethylacetate, 77 °C), 100 mass %. The “BBA Mass Content, %, at T (°C)” value in data set [2] (Hexane, 69 °C) is on record as 52 mass %; in data set [2] (Isopropanol, 82 °C) it was 72 mass %.

Source of the values: patent EP1473301A2, “Betulinol derivatives” (CORNELL RESEARCH FOUNDATION, INC., priority 1997, dated 1998).
